Columns and labels:
Settings in all cases: incubation time: 72 h
CAL-148 = test: normalised viability (% of control), CellTiter-Blue; higher = more viable cells (about 100 = DMSO control)
Method: (§1)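 DSRT, CellTiter-Blue viability, 72 h incubation. Signal is normalised to DMSO and benzethonium chloride controls. Value is the normalised response at dose 7.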

CAL-51 [1] = test: as above
Method: as §1

CAL-85-1 = test: as above
Method: as §1

DU-4475 = test: as above
Method: as §1

HDQ-P1 = test: as above
Method: as §1

MDA-MB-453 = test: as above
Method: as §1

CAL-51 [2] = test: normalised response (% of control), CellTox Green; higher = less cell death (100 = DMSO, 0 = benzethonium chloride kill control)
Summary of the method: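 Breast cancer cell lines, seeded at 20 µl suspension per well, were incubated for 72 h in 384-well plates containing compound at 5 concentrations. These concentrations rose in 10-fold steps over a 10,000-fold range set for each compound. CellTox Green fluorescence (485/520 nm) was read, then CellTiter-Glo luminescence after 10 min at room temperature, and each plate was normalised to 0.1 % DMSO (100) and a positive kill control (0). Values are normalised signals, each at one concentration.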

Row | SMILES | normalised viability (CAL-148) | normalised viability (CAL-51 [1]) | normalised viability (CAL-85-1) | normalised viability (DU-4475) | normalised viability (HDQ-P1) | normalised viability (MDA-MB-453) | normalised response (CAL-51 [2])
1 | Cc1ccc(C(=O)N(CCCN)[C@@H](c2oc3cc(Cl)ccc3c(=O)c2Cc2ccccc2)C(C)C)cc1 (100 nM) | 18.9% | 34.7% | 30.1% | 43% | 72.5% | 25.4% | 74.4%
2 | CO[C@H]1/C=C\C=C(/C)C(=O)NC2=CC(=O)C(NCCN(C)C)=C(C[C@@H](C)C[C@H](OC)[C@H](O)[C@@H](C)/C=C(\C)[C@@H]1OC(N)=O)C2=O [Alvespimycin] (100 nM) | 15.6% | 34.7% | 33.1% | 0.89% | 38% | 6.21% | 60.4%
3 | CO[C@H]1/C=C\C=C(/C)C(=O)NC2=CC(=O)C(NCCN(C)C)=C(C[C@@H](C)C[C@H](OC)[C@H](O)[C@@H](C)/C=C(\C)[C@@H]1OC(N)=O)C2=O [Alvespimycin] (1000 nM) |  |  |  |  |  |  | 69.6%
4 | CCC1(c2ccc(N)cc2)CCC(=O)NC1=O (stereo not drawn) [Aminoglutethimide] (1000 nM) | 113% | 91% | 95.2% | 86.1% | 79.3% | 88.8% | 83.5%
5 | CCC1(c2ccc(N)cc2)CCC(=O)NC1=O (stereo not drawn) [Aminoglutethimide] (10000 nM) |  |  |  |  |  |  | 115%
6 | Cn1c(CCCC(=O)O)nc2cc(N(CCCl)CCCl)ccc21 [Bendamustine] (1000 nM) | 117% | 109% | 86.3% | 112% | 108% | 102% | 116%
7 | Cn1c(CCCC(=O)O)nc2cc(N(CCCl)CCCl)ccc21 [Bendamustine] (10000 nM) |  |  |  |  |  |  | 115%
8 | C=C(c1ccc(C(=O)O)cc1)c1cc2c(cc1C)C(C)(C)CCC2(C)C [Bexarotene] (1000 nM) | 96.6% | 80.6% | 84.5% | 116% | 76% | 86.5% | 110%
9 | C=C(c1ccc(C(=O)O)cc1)c1cc2c(cc1C)C(C)(C)CCC2(C)C [Bexarotene] (10000 nM) |  |  |  |  |  |  | 96.8%
10 | COc1cc2nccc(Oc3ccc(NC(=O)C4(C(=O)Nc5ccc(F)cc5)CC4)cc3)c2cc1OC [Cabozantinib] (100 nM) | 107% | 102% | 79.6% | 91.8% | 85.5% | 95.3% | 100%
11 | COc1cc2nccc(Oc3ccc(NC(=O)C4(C(=O)Nc5ccc(F)cc5)CC4)cc3)c2cc1OC [Cabozantinib] (1000 nM) |  |  |  |  |  |  | 82.7%
12 | N.N.[Cl][Pt][Cl] [Cisplatin] (1000 nM) | 112% | 104% | 86.4% | 110% | 108% | 103% | 100%
13 | C[C@@H](Oc1cc(-c2cnn(C3CCNCC3)c2)cnc1N)c1c(Cl)ccc(F)c1Cl [Crizotinib] (1000 nM) | 96.4% | 108% | 86.9% | 108% | 92.5% | 91.9% | 83.6%
14 | CN(C)/N=N/c1[nH]cnc1C(N)=O [Dacarbazine] (1000 nM) | 106% | 85.8% | 90% | 96.2% | 110% | 109% | 105%
15 | CN(C)/N=N/c1[nH]cnc1C(N)=O [Dacarbazine] (10000 nM) |  |  |  |  |  |  | 111%
16 | Cc1ccc(-n2nc(C(C)(C)C)cc2NC(=O)Nc2ccc(OCCN3CCOCC3)c3ccccc23)cc1 [Doramapimod] (1000 nM) | 105% | 101% | 73.5% | 122% | 66.7% | 87.9% | 101%
17 | Cc1ccc(-n2nc(C(C)(C)C)cc2NC(=O)Nc2ccc(OCCN3CCOCC3)c3ccccc23)cc1 [Doramapimod] (10000 nM) |  |  |  |  |  |  | 86.3%
18 | C#Cc1cccc(Nc2ncnc3cc(OCCOC)c(OCCOC)cc23)c1 [Erlotinib] (1000 nM) | 63% | 92% | 62.4% | 94.8% | 71.6% | 91.4% | 78.1%
19 | C#Cc1cccc(Nc2ncnc3cc(OCCOC)c(OCCOC)cc23)c1 [Erlotinib] (10000 nM) |  |  |  |  |  |  | 86%
20 | COc1cc([C@@H]2c3cc4c(cc3[C@@H](O[C@@H]3O[C@@H]5CO[C@@H](C)O[C@H]5[C@H](O)[C@H]3O)[C@H]3COC(=O)[C@H]23)OCO4)cc(OC)c1O [Etoposide] (1000 nM) | 63.4% | 35.4% | 90.8% | 12.3% | 88.8% | 93.4% | 50.3%
21 | C[C@]12CC[C@@H]3c4ccc(O)cc4C[C@@H](CCCCCCCCC[S+]([O-])CCCC(F)(F)C(F)(F)F)[C@H]3[C@@H]1CC[C@@H]2O (stereo partly drawn) [Fulvestrant] (1000 nM) | 92.4% | 111% | 84.9% | 93.5% | 84.3% | 84.6% | 117%
22 | O=P1(NCCCl)OCCCN1CCCl (stereo not drawn) [Ifosfamide] (1000 nM) | 101% | 114% | 81.2% | 101% | 103% | 112% | 95.4%

Row | SMILES | normalised viability (CAL-148) | normalised viability (CAL-51 [1]) | normalised viability (CAL-85-1) | normalised viability (DU-4475) | normalised viability (HDQ-P1) | normalised viability (MDA-MB-453) | normalised response (CAL-51 [2])
23 | O=P1(NCCCl)OCCCN1CCCl (stereo not drawn) [Ifosfamide] (10000 nM) |  |  |  |  |  |  | 93.9%
24 | CC1(C)NC(=O)N(c2ccc([N+](=O)[O-])c(C(F)(F)F)c2)C1=O [Nilutamide] (1000 nM) | 108% | 99.7% | 94.2% | 102% | 123% | 108% | 103%
25 | CC1(C)NC(=O)N(c2ccc([N+](=O)[O-])c(C(F)(F)F)c2)C1=O [Nilutamide] (10000 nM) |  |  |  |  |  |  | 102%
26 | Cc1ccc(C(=O)Nc2ccc(CN3CCN(C)CC3)c(C(F)(F)F)c2)cc1C#Cc1cnc2cccnn12 [Ponatinib] (100 nM) | 94.8% | 82.9% | 89.3% | 104% | 92.8% | 77.7% | 99%
27 | Cc1ccc(C(=O)Nc2ccc(CN3CCN(C)CC3)c(C(F)(F)F)c2)cc1C#Cc1cnc2cccnn12 [Ponatinib] (1000 nM) |  |  |  |  |  |  | 57.4%
28 | Cn1c(Nc2ccc(C(F)(F)F)cc2)nc2cc(Oc3ccnc(-c4ncc(C(F)(F)F)[nH]4)c3)ccc21 [RAF265] (100 nM) | 101% | 86.1% | 80.5% | 104% | 74.6% | 83.7% | 100%
29 | Cn1c(Nc2ccc(C(F)(F)F)cc2)nc2cc(Oc3ccnc(-c4ncc(C(F)(F)F)[nH]4)c3)ccc21 [RAF265] (1000 nM) |  |  |  |  |  |  | 96.3%
30 | CNCc1ccc(-c2[nH]c3cc(F)cc4c3c2CCNC4=O)cc1 [Rucaparib] (1000 nM) | 92.2% | 103% | 85.4% | 82.3% | 89.6% | 102% | 93.3%
31 | CNCc1ccc(-c2[nH]c3cc(F)cc4c3c2CCNC4=O)cc1 [Rucaparib] (10000 nM) |  |  |  |  |  |  | 94.4%
32 | N[C@@H](CSC(c1ccccc1)(c1ccccc1)c1ccccc1)C(=O)O [S-trityl-L-cysteine] (4000 nM) | 117% | 85.1% | 98.3% | 103% | 86.5% | 94.3% | 105%
33 | N[C@@H](CSC(c1ccccc1)(c1ccccc1)c1ccccc1)C(=O)O [S-trityl-L-cysteine] (40000 nM) |  |  |  |  |  |  | 104%
34 | CN(N=O)C(=O)N[C@@H](C=O)[C@@H](O)[C@H](O)[C@H](O)CO [Streptozocin] (1000 nM) | 98.6% | 103% | 91.2% | 112% | 95.5% | 105% | 95.2%
35 | O=C1CCC(N2C(=O)c3ccccc3C2=O)C(=O)N1 (stereo not drawn) [Thalidomide] (1000 nM) | 116% | 84.8% | 99.4% | 97% | 81.1% | 103% | 111%
36 | O=C1CCC(N2C(=O)c3ccccc3C2=O)C(=O)N1 (stereo not drawn) [Thalidomide] (10000 nM) |  |  |  |  |  |  | 100%
37 | CN[C@@H]1C[C@H]2O[C@@](C)([C@@H]1OC)n1c3ccccc3c3c4c(c5c6ccccc6n2c5c31)C(=O)N[C@H]4O [UCN-01] (1000 nM) | 81.5% | 16.8% | 33.7% | 10.1% | 32.1% | 30.2% | 40.2%
38 | CN[C@@H]1C[C@H]2O[C@@](C)([C@@H]1OC)n1c3ccccc3c3c4c(c5c6ccccc6n2c5c31)C(=O)N[C@H]4O [UCN-01] (10000 nM) |  |  |  |  |  |  | 33.5%
39 | Clc1ccc(Nc2nnc(Cc3ccncc3)c3ccccc23)cc1 [Vatalanib] (1000 nM) | 83.4% | 101% | 92.5% | 97.8% | 98.6% | 91.6% | 109%
40 | Clc1ccc(Nc2nnc(Cc3ccncc3)c3ccccc23)cc1 [Vatalanib] (10000 nM) |  |  |  |  |  |  | 109%
41 | CCC1=C[C@@H]2CN(C1)Cc1c([nH]c3ccccc13)[C@@](C(=O)OC)(c1cc3c(cc1OC)N(C)[C@H]1[C@@](O)(C(=O)OC)[C@H](OC(C)=O)[C@]4(CC)C=CCN5CC[C@]31[C@@H]54)C2 [Vinorelbine] (1000 nM) | 21.1% | 19.7% | 37.5% | 29% | 38.6% | 28% | 18.8%
42 | Oc1nc(-c2ccc(C(F)(F)F)cc2)nc2c1CSCC2 [XAV-939] (1000 nM) | 101% | 93.2% | 81.8% | 108% | 103% | 90.3% | 102%
43 | Oc1nc(-c2ccc(C(F)(F)F)cc2)nc2c1CSCC2 [XAV-939] (10000 nM) |  |  |  |  |  |  | 79.7%

Source: the supplement of paper PMC4862054
